{"source": "paper PMC9911797", "about": "“Novel TLR7/8 agonists promote activation of HIV-1 latent reservoirs and human T and NK cells” (Frontiers in Microbiology, 2023)", "key": {"hTLR7": {"target": "T1, hTLR7 (Homo sapiens, UniProt Q9NYK1)", "T1 construct": "host or cells: HEK-Blue hTLR7 (HEK293-derived)", "T1 sequence (Q9NYK1 27-1049)": "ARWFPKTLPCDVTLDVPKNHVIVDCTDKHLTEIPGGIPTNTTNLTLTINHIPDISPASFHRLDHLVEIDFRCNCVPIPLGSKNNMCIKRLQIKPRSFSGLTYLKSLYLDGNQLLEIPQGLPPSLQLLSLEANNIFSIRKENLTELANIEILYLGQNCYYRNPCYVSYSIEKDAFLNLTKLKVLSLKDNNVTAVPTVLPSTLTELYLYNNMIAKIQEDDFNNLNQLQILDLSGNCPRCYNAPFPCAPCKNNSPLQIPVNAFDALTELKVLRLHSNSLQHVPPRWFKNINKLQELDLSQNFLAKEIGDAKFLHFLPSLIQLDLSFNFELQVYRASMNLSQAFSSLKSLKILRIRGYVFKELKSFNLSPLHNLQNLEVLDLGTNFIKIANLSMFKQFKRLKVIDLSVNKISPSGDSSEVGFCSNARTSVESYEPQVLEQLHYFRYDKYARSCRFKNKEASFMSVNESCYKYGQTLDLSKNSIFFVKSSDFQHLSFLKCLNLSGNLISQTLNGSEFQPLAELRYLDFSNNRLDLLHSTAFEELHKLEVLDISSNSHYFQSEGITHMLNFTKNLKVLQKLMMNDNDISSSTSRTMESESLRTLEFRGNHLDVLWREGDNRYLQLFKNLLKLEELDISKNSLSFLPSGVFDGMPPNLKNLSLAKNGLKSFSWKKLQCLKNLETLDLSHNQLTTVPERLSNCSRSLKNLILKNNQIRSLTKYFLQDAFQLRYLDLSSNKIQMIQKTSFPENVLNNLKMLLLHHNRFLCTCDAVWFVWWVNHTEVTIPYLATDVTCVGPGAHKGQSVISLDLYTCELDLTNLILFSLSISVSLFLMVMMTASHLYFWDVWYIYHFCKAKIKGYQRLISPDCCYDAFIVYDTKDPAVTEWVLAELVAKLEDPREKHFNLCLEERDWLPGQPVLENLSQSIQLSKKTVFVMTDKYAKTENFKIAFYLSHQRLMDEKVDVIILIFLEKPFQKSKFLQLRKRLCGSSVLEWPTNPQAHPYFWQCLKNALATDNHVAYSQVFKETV", "assay": "HEK-Blue hTLR7 SEAP reporter assay", "format": "cell-based", "conditions": "HEK-Blue hTLR7 cells, SEAP in supernatant", "procedure": "Starting with the lead compound, 76 pyrido [3,2-d] pyrimidine derivatives were synthesized and optimized through structural modification from the deep hydrophobic region to the solvent-exposed region. Seventy-six compounds were evaluated for their in vitro activity using HEK-Blue hTLR7 or hTLR8 reporter cells, stably expressing the human TLR7 or TLR8 and an NF-κB/AP1-inducible SEAP (secreted embryonic alkaline phosphatase reporter gene).\nAdd 20 μl various concentrations of TLR agonists (10 dilutions) and in a 96-well plate. Then HEK-Blue hTLR7 and hTLR8 cells were suspended to 4 × 10^5 cells/ml in HEK-Blue Detection (InvivoGen) medium and added 180 μl per well. The plates were incubated at 37°C in 5% CO2 for 12 ~ 16 h. Stimulation with a hTLR7or hTLR8 ligand activates NF-κB to induce the production of secreted embryonic alkaline phosphatase (SEAP) in the culture supernatant. SEAP could be measured at OD630nm on an ELISA plate reader."}, "[1]": {"tested_on": "PBMCs from HIV-1 well-suppressed patients", "assay": "Latent HIV-1 activation in PBMCs of well-suppressed patients (HIV-1 RNA copies in supernatant, RT-qPCR)", "format": "cell-based, human", "description": "To study the potential of novel TLR7/8 in activating latent HIV-1 reservoir, TLR7/8 dual agonists D018 and C142 and TLR8-specific agonist B-130a were mixed with PBMCs from six well-suppressed patients whose viral load in the plasma was less than 50 copies/ml, and CD4 counts were more than […] for more than 6 years.\nTLR7/8 agonists activated PBMCs from seven well-suppressed patients with the addition of anti-TNF-α monoclonal antibody or IgG1-control monoclonal antibody, respectively. D018, B-130a, and the positive control PMA + ION increased the levels of HIV-1 RNA copies in the supernatant and the concentration of TNF-α concomitantly.\nTo measure the HIV viral load, viral RNA from supernatants was extracted by MagaBio Plus Viral DNA / RNA Purification Kit (BIOER). The reverse-transcription and analysis of RNA copies were performed using the HIV-1 Real-time PCR detection kit (BIOER)."}, "[2]": {"tested_on": "PBMCs from healthy donors", "assay": "Surface activation markers on immune cells of healthy donor PBMCs (flow cytometry)", "format": "cell-based, human", "conditions": "1 μM, 24 h", "description": "TLR family is essential in connecting innate immunity with acquired immunity in fighting against infection. It was then studied whether the identified TLR7/8 agonists could activate cell populations within PBMC, thereby potentiating their effector functions. […] The representative diagram of the gating strategy for each immune cell is shown in Supplementary Figure S5. All tested TLR7/8 agonists activated CD69 and NKG2D expression on CD56^bright and CD56^dim NK cells (Figures 6A–D), as well as CD69 and CD25 expression on CD4+ and CD8+ T cells (Figures 6E–H).\nThen cells were collected and washed in FACS buffer (PBS + 2%FBS). Cells were incubated by fluorescence antibodies at 4°C for 30 min. For T cells, CD3-PE-Cy7 (Biolegend), CD4-PE (BD), CD8-FITC (Biolegend), CD25-BV421 (Biolegend), CD69-BV510 (Biolegend). For NK cells, CD16-PE (Biolegend), CD56-APC (Biolegend), CD69-BV510 (Biolegend), NKG2D-BV421 (Biolegend). For monocytes, CD14-PE-Cy7 (Invitrogen), CD40-APC-Cy7 (Biolegend) HLR-DR-BV510 (Biolegend). For dendritic cells, anti-human lineage cocktail-APC (Biolegend), CD11c-PE-Cy7 (Biolegend), CD80-BV510 (Biolegend), CD86-AF488 (Biolegend)."}, "NF-κB p65 in U1 cells": {"tested_on": "NF-κB p65 in U1 cells", "assay": "Nuclear phospho-p65-S536 in U1 cells (western blot)", "conditions": "1 μM, 30 min, 37°C", "quoted_text": "For measuring NF-kB p65 and phosphor-p65 S536, 5 × 10^6 U1 cells were stimulated by 1 μM TLR7/8 agonists D018 (7/8), B-130a (8), GS9620 (7), and DMSO (negative control) for 30 min. Nuclear proteins were extracted by NE-PER Nuclear and Cytoplasmic Extraction Reagents (Pierce) and measured the concentration using BCA protein measure kit (Thermo).\nEqual amounts of extracts were loaded on the 10% polyacrylamide gel SDS-PAGE. Then proteins were electro-transferred to nitrocellulose membranes 300 mA for 90 min and incubated with blocking buffer (5% nonfat dry milk and 0.1% Tween 20 in TBS) for 1 h at room temperature. NF-kB p65, phosphorylate p65-s529, and PCNA (as the control of nuclear protein) were separately detected by NF-κB p65 Mouse mAb (CST), Phospho-NF-κB p65 Ser536 Rabbit mAb (CST) and PCNA Rabbit mAb (CST) in blocking buffer overnight at 4°C. After washing 5 times in TBST (1 × TBS + 0.1% Tween), the membranes were incubated with anti-mouse IgG (H + L) HRP (Promega) and anti-rabbit IgG (H + L) HRP (Promega) for 1 h at room temperature. After washing 5 times in TBST, membranes were incubated with ECL detection reagents (Bio-red) and then developed in Bio-red imager."}, "[3]": {"tested_on": "U1 monocytic cell line (latent HIV-1)", "assay": "HIV-1 p24 production in latently infected U1 cells (ELISA)"}, "[4]": {"tested_on": "J-LAT CD4 T cell line (latent HIV-1)", "assay": "J-LAT activation by supernatant of agonist-stimulated healthy donor PBMCs (GFP+ cells, FACS)", "conditions": "48 h, highest concentration 16 μM"}}, "data": [{"compound": "CCCCNc1nc(N)nc2ccc(Cc3ccc(CN(C)C)cc3)nc12", "note": "[D018]", "values": [{"measurement": "EC50", "setting": "hTLR7", "value": 40.2, "unit": "nM"}, {"measurement": "HIV-1 RNA copies in the supernatant and TNF-α concentration", "setting": "[1]; PBMCs from seven well-suppressed patients, IgG1-control antibody vs anti-TNF-α", "value": "increased"}, {"measurement": "HIV-1 RNA copies in the supernatant", "setting": "[1]; patient PBMCs (n = 6), 96 h at 37°C", "value": "most potent"}, {"measurement": "CD69/NKG2D on NK cells and CD69/CD25 on CD4+ and CD8+ T cells", "setting": "[2]", "value": "most potent"}, {"measurement": "nuclear phos-p65-S536", "setting": "NF-κB p65 in U1 cells", "value": "significant increase"}, {"measurement": "p24 production after TLR8 or MyD88 knockdown", "setting": "[3]; 1 μM, TLR8- or MyD88-shRNA U1 vs sham-knockdown", "value": "essentially abolished the p24 production"}, {"measurement": "EC50", "setting": "[3]; Homo sapiens, read-out: EC50 of p24 production in U1", "value": 70, "unit": "nM"}, {"measurement": "GFP-positive J-LAT cells, PBMC supernatant", "setting": "[4]", "value": "most potent"}]}]}
